Source: patent US20100150938A1, “METHODS AND COMPOSITIONS FOR REDUCING INFLAMMATION AND TREATING INFLAMMATORY DISORDERS” (UNIVERSITY OF MASSACHUSETTS, priority 2008, published 2010)
“Also recorded” adds a separate entry of the source.

What was measured:
mouse macrophages = test: IL-1β release from LPS-primed mouse macrophages (bone marrow-derived, B6-MCLs), ELISA; assay type: cell-based; conditions: LPS-primed bone marrow-derived macrophages of wild type mice, Aβ 1, 5 and 10 μM
Method: Bone marrow derived macrophages were generated as described (Severa, M et al. Journal of Biological Chemistry 281:26188-26195 (2006)). Human PBMCs were isolated by from whole blood of healthy volunteers by density gradient centrifugation. Lysis of red blood cells was performed using red blood cell lysis buffer (Sigma). Experiments in PBMCs and macrophages were carried out at a cell density of 2×10^6 cells/ml. All primary cells and cell lines except THP-1 cells were cultured in DMEM supplemented with L-glutamine, ciprofloxacin (Cellgro, Manassas, Va.) and 10% fetal calf serum (Hyclone, Logan, Utah). THP-1 cells were cultured in RPMI supplemented with 10% fetal calf serum (Hyclone), L-glutamine, sodium pyruvate (Cellgro), and ciprofloxacin. One day prior to stimulation, THP-1 cells were differentiated using 0.5 μM PMA for three hours, washed three times and plated for stimulation. All experiments that were performed for Western blot analysis were carried out in serum free DMEM medium. ATP stimulations were carried out at 5 mM one hour prior to harvesting supernatants.
Immortalized macrophage cell lines were generated using the previously described J2 recombinant retrovirus (carrying v-myc and v-raf/mil oncogenes) (Roberson, S. M. & Walker, W. S. Cellular immunology 116:341-351 (1988)). Briefly, primary bone marrow cells were incubated in L929 conditioned medium for 3-4 days to induce macrophage differentiation. Subsequently, cells were infected with J2 recombinant retrovirus. Cells were maintained in culture for 3-6 months slowly weaning off the percentage of L929 supernatant until cells were growing in the absence of conditioned medium.
Macrophage phenotype was verified by surface marker expression for CD11b and F480 as well as a range of functional parameters, including responsiveness to TLR ligands and bacterial uptake. Macrophage cell lines from wild-type (C57BL6), NALP3- and ASC-deficient mice were generated and are referred to as B6-MCLs, NALP3 -MCLs and ASC-MCLs.
Cell culture supernatants were assayed for IL-1β using ELISA kits from BD Biosciences (Franklin Lakes, NJ) according to the manufacturer's instructions. To measure intracellular IL-1β, cells were washed and subjected to three freeze thaw cycles in assay diluent.
Stimulations were carried out in serum free DMEM medium. Microglial cells and macrophages were primed with 100 U/ml IFNγ (Griess assay, TNF ELISA, real-time quantitative PCR) or 100 ng/ml ultrapure LPS (IL-1β ELISA, FLICA, ASC-CFP microglia cell line assay, Western blot) 1-3 h prior to stimulation with Aβ, revAβ, zymosan, ATP or transfection with dAdT.

caspase-1 = test: Caspase-1 activation in microglia (FLICA, confocal microscopy, flow cytometry); assay type: cell-based, mouse; conditions: immortalized microglia, Aβ 10 μM, revAβ 10 μM, ATP 1 mM, 4 h
Method: For assessment of microglia-induced neurotoxicity, CAD mouse neuronal cells^47 were seeded on poly-L-lysine coated glass cover slips and grown in F12/DMEM supplemented with ciprofloxacin (Cellgro, Manassas, Va.) and 10% fetal calf serum (Hyclone, Logan, Utah) for 24 h. Differentiation was induced by withdrawal of serum for 48 h Immortalized microglia from wildtype or caspase-1^−/− mice were added in serum free medium to obtain mixed neuronal/microglial cultures and immediately stimulated. 72 h after stimulation with Aβ or media, cells were fixed, stained for the neuron-specific marker TuJ-1 and microglial marker CD11b, and imaged by confocal microscopy (Leica SP2 AOBS). Caspase-1 activity in microglial cells was assessed using the caspase-1 FLICA™ kit (Immunochemistry Technologies, Bloomington, Minn.) according to the manufacturer's instructions.
(§1) For evaluation of lysosomal damage, cells were incubated with LysoTracker green (1:2000) for 30 min and stimulated as described. Lysosomal damage was defined as loss of LysoTracker fluorescence as assessed by flow cytometry. All flow cytometry experiments were performed on an LSRII cytometer (BD Biosciences), data were acquired by DIVA software (BD Biosciences) and analyzed with FlowJo software (Tree Star Inc., Ashland, Oreg.).
IL-1β maturation is controlled by caspase-1 after assembly of the inflammasome, a multi protein complex that activates pro-caspase-1. In order to test whether Aβ activates caspase-1, we measured levels of activated caspase-1 using a fluorescent cell permeable probe (FAM-YVAD-Fmk), which covalently binds only to activated caspase-1 (Fluorescent labeled Inhibitors of Caspases, FLICA)^14. […] Similar results were obtained in primary microglial cultures (FIG. 15c).

lysosomes of microglia = test: Lysosomal swelling and damage in microglia after Aβ phagocytosis (LAMP-1, cathepsin B, LysoTracker); assay type: cell-based, mouse
Method: Neuronal, microglial, mixed neuronal/microglial and primary mixed glial cultures were fixed with 4% paraformaldehyde for 30 min and incubations with respective primary and secondary antibodies were performed for 2 h at room temperature in PBS containing 1% bovine serum albumin, 5% fetal calf serum and 0.05% saponin Cell nuclei were stained with Hoechst 33258 (1:1000).
as §1

ASC = test: ASC-CFP microglia cell line, ASC clustering; assay type: cell-based, mouse; conditions: LPS-primed ASC-CFP microglia, 3 h after stimulation
From the text: Human ASC was fused to CFP using BgIII/BamHI in pEF-BOS-CFP. Subsequently, ASC-CFP was cloned using XhoI and NotI into a modified form of FUGW (FUGW-XN). FUGW-XN was modified by replacing GFP with a novel cut site that created XhoI and NotI compatible ends upon Esp3I digestion.
Lentivirus was produced in 293T cells transfected with the FUGW based expression vector coding for ASC-CFP, lentiviral packaging plasmid containing gag, pol and rev genes (pCMV-dR8.91) and envelope plasmid (VSV-G) using TransIT-LT1 transfection reagent (Minis Bio, MIR 2300/5/6) as previously described^46. One day after transfection, medium was replaced and after one additional day of culture supernatants containing the lentivirus was removed, filtered and used to infect immortalized microglia cells.
For experiments, ASC-CFP microglial cells were seeded in duplicate into confocal dishes, stimulated as indicated. A647-labeled cholera toxin subunit B (1:1000) was added to stain cellular membranes. Cells were subsequently imaged using confocal microscopy (Leica SP2 AOBS). Cells were fixed and 5 random fields were imaged in duplicate for quantification.
First, we stably transduced microglial cell cultures with a fusion protein of ASC and cyan fluorescent protein (CFP). ASC forms large oligomers upon its activation, leading to visible changes in the cytoplasmic fluorescence pattern of ASC-CFP. […]

Aβ 1-42 peptide
IL-1β release induced by Aβ (mouse macrophages): strong and dose-dependent IL-1β release | caspase-1 positive microglial cells after stimulation (caspase-1): robust increase | cells with enlarged lysosomes not staining for cathepsin B (lysosomes of microglia; microglia, 4 h after Aβ stimulation): 15-20% | diameter of Aβ-containing lysosomes, largest observed (lysosomes of microglia; microglia, Aβ-FITC): up to 11 μm | diameter of Aβ-containing lysosomes, mean (lysosomes of microglia; microglia, Aβ-FITC): 4.1±0.4 μm | cells with extensive enlargement and swelling of Aβ-containing lysosomes (lysosomes of microglia; microglia, of all cells): ~15% | cells negative for LysoTracker fluorescence (lysosomes of microglia; wild type microglia, Aβ 1, 3 and 10 μM, flow cytometry): increased dose-dependently; also recorded: induced loss of LysoTracker Green fluorescence | formation of fluorescent ASC-CFP clusters (ASC): brightly fluorescent clusters of ASC-CFP formed
